The values below come from publication PMC6918900, “Concentration-Dependent Activity of Hydromethylthionine on Cognitive Decline and Brain Atrophy in Mild to Moderate Alzheimer’s Disease” (Journal of Alzheimer's Disease, 2019).

The test system of series [1] is electron transfer chain. Also on record: method as in PMID 17928358, PMID 22419586. The following applies: supplementary electron carrier in the electron transfer chain; cited from earlier work.
The subject of series [2] is autophagy. Also on record: method as in PMID 26572258, PMID 22361619. The following applies: cited from earlier work.
The test system of series [3] is tangle filaments isolated from AD brain tissues. Also on record: method as in PMID 25759392, PMID 8855335. The settings on record: at a similar molar ratio (tau:LMT 1 : 0.1); cited from earlier work.
The conditions of series [4]: earlier Phase II study; cited from earlier work.
The nature of series [5]: Estimated steady state brain concentration of LMT. Set-up: species or system human. The settings on record: corresponding to 0.3–0.8 ng/ml in plasma.
The conditions of series [6]: elderly humans; cited from earlier work.
In series [7] the test system is tau transgenic mouse models. The following applies: dose of 9 mg/kg/day; cited from earlier work.
For series [8] the following is noted: mice; cited from earlier work.

Several values for one entry are separate records, joined by “and”; a condition that tells them apart may be missing. Equal entries are not always repeated. Where two headings read alike, the source gives them in different places.

As a reminder, the half-life is the time needed for the level to fall by half in the phase considered.

As to `CN(C)c1ccc2nc3ccc(=[N+](C)C)cc-3sc2c1` [MT moiety, methylthioninium], in series [1], the “concentrations enhancing mitochondrial activity” value is 10 to 100 nM. The “concentration range enhancing autophagy” value in series [2] was 10 to 20 nM. In addition, the “effect on proteolytic stability of tangle filaments” value in series [3] is “reverse the proteolytic stability of tangle filaments”.

On to `CN(C)c1ccc2nc3ccc(=[N+](C)C)cc-3sc2c1` [MTC, methylthioninium chloride], for which the minimum effective dose in series [4] is listed as 138 mg/day.

Take `CN(C)c1ccc2c(c1)Sc1cc(N(C)C)ccc1N2` [LMT, leuco-methylthioninium]: in series [5], the “estimated steady state concentration in the brain” value was 6–16 ng/ml and 0.021–0.056 μM. The half-life in series [6] is recorded as 37 h; in series [8], 4 h. In series [7], the “effect on tau aggregation pathology and behavioral deficits” value is “reduces tau aggregation pathology and associated behavioral deficits”.
